{"source": "patent US9789116B2", "about": "“Compositions and methods of modulating short-chain dehydrogenase activity” (CASE WESTERN RESERVE UNIVERSITY, priority 2013, dated 2017)", "key": {"[1]": {"system": "15-PGDH-luciferase fusion reporter in V9m, LS174T and V503 cells", "test": "15-PGDH-luciferase fusion gene reporter induction in colon cancer cell lines", "type": "cell-based"}, "[2]": {"system": "15-PGDH mRNA", "test": "15-PGDH mRNA levels in colon cancer cell lines by real-time PCR", "type": "cell-based", "source_text": "In these studies parental cell lines (not containing the 15-PGDH-luciferase reporter) are employed."}, "[3]": {"system": "A549 cells", "test": "PGE2 levels in medium of IL1-beta stimulated A549 cells", "type": "cell-based", "conditions": "IL1-beta 23 hours, compound added for the last 5 hours"}, "[4]": {"system": "A549 cells", "test": "Cellular toxicity on A549 cells by CellTiter-Glo", "type": "cell-based", "conditions": "24 hours, concentrations of up to 10 μM", "procedure": "FIGS. 38(A-C) show assays of cellular toxicity on A549 cells at 24 hours of 15-PGDH inhibitors as assayed by CellTiter-Glo measurement."}, "[5]": {"system": "FVB mice", "test": "Toxicity study in FVB mice, daily weights", "type": "in vivo, mouse", "conditions": "5 mg/kg IP twice daily for 21 days, N=6"}, "[6]": {"system": "C57BL/6J mice", "test": "Bone marrow of C57BL/6J mice treated in vivo", "design": "species or system mouse", "conditions": "IP 5 mg/kg or 20 mg/kg", "source_text": "Experimental conditions are noted on the figure."}, "[7]": {"system": "lethally irradiated CD45.1 mice", "test": "Competitive bone marrow transplant, CD45.2 chimerism", "type": "in vivo, mouse", "procedure": "On day 3 mice were sacrificed, marrow flushed and mixed at a 1:1 ratio with vehicle treated CD45.1 marrow. 2 million whole BM cells were injected into the tail vein of lethally irradiated CD45.1 mice and percent chimerism measured via flow cytometry at weeks 8, 12, 16."}, "[8]": {"system": "C57BL/6J female mice", "test": "Survival after whole body irradiation", "type": "in vivo, mouse", "conditions": "for Number of mice surviving: cohort of 3"}}, "data": [{"compound": "CCCC[S+]([O-])c1sc2nc(-c3cccs3)cc(-c3ccccc3)c2c1N", "note": "(stereo not drawn) [SW033291, 2-(butylsulfinyl)-4-phenyl-6-(thiophen-2-yl)thieno[2,3-b]pyridin-3-amine]", "values": [{"measurement": "exposure needed for maximal reporter induction", "setting": "[1]; 24 hours, three cell line backgrounds", "result": "80 to 160", "unit": "nM"}, {"measurement": "luciferase activity of 15-PGDH luciferase fusion cells", "setting": "[1]; V9m, LS174T, V503, various concentrations", "result": "increase luciferase activity"}, {"measurement": "15-PGDH mRNA levels", "setting": "[2]; V503 cells", "result": "slight increase in 15-PGDH mRNA"}, {"measurement": "15-PGDH mRNA levels", "setting": "[2]; treated colon cancer cell lines, real-time PCR", "result": "do not in general alter 15-PGDH mRNA levels"}, {"measurement": "15-PGDH activity in cells as reflected in PGE2 levels in medium", "setting": "[3]", "result": "clear inhibition of 15-PGDH activity in the cells"}, {"measurement": "effect on CellTitre-Glo levels", "setting": "[4]", "result": "No effect"}, {"measurement": "mouse weight gain", "setting": "[5]", "result": "no evidence for SW033291 reducing mouse weight"}, {"measurement": "percent of Sca1+/c-Kit+ cells in lineage negative (SKL) cells", "setting": "[6]", "result": "unchanged"}, {"measurement": "percent blood chimerism of CD45.2 marked cells", "setting": "[7]; donor 5 mg/kg IP daily for 3 doses, weeks 12 and 16", "result": "significantly increased"}, {"measurement": "contribution to B and T cell populations", "setting": "[7]; week 16", "result": "significant increase in contribution to B and T cell populations"}, {"measurement": "Number of mice surviving", "setting": "[8]; 7 Gy, 5 mg/kg IP daily for 7 doses, Day 5", "result": 3}, {"measurement": "Number of mice surviving", "setting": "[8]; 7 Gy, 5 mg/kg IP daily for 7 doses, Day 6", "result": 3}, {"measurement": "Number of mice surviving", "setting": "[8]; 7 Gy, 5 mg/kg IP daily for 7 doses, Day 7", "result": 3}, {"measurement": "Number of mice surviving", "setting": "[8]; 7 Gy, 5 mg/kg IP daily for 7 doses, Day 8", "result": 3}, {"measurement": "Number of mice surviving", "setting": "[8]; 7 Gy, 5 mg/kg IP daily for 7 doses, Day 9", "result": 3}, {"measurement": "Number of mice surviving", "setting": "[8]; 7 Gy, 5 mg/kg IP daily for 7 doses, Day 10", "result": 3}, {"measurement": "Number of mice surviving", "setting": "[8]; 7 Gy, 5 mg/kg IP daily for 7 doses, Day 11", "result": 3}, {"measurement": "Number of mice surviving", "setting": "[8]; 7 Gy, 5 mg/kg IP daily for 7 doses, Day 12", "result": 3}, {"measurement": "Number of mice surviving", "setting": "[8]; 7 Gy, 5 mg/kg IP daily for 7 doses, Day 13", "result": 3}, {"measurement": "Number of mice surviving", "setting": "[8]; 7 Gy, 5 mg/kg IP daily for 7 doses, Day 14", "result": 3}, {"measurement": "Number of mice surviving", "setting": "[8]; 7 Gy, 5 mg/kg IP daily for 7 doses, Day 15", "result": 3}, {"measurement": "Appearance of mice", "setting": "[8]; 7 Gy, Day 25, printed 'Looks Healthy' over two lines", "result": "Healthy"}, {"measurement": "Number of mice surviving", "setting": "[8]; 9 Gy, 5 mg/kg IP daily for 7 doses, Day 5", "result": 3}, {"measurement": "Number of mice surviving", "setting": "[8]; 9 Gy, 5 mg/kg IP daily for 7 doses, Day 6", "result": 3}, {"measurement": "Number of mice surviving", "setting": "[8]; 9 Gy, 5 mg/kg IP daily for 7 doses, Day 7", "result": 3}, {"measurement": "Number of mice surviving", "setting": "[8]; 9 Gy, 5 mg/kg IP daily for 7 doses, Day 8", "result": 3}, {"measurement": "Number of mice surviving", "setting": "[8]; 9 Gy, 5 mg/kg IP daily for 7 doses, Day 9", "result": 3}, {"measurement": "Number of mice surviving", "setting": "[8]; 9 Gy, 5 mg/kg IP daily for 7 doses, Day 10", "result": 3}, {"measurement": "Number of mice surviving", "setting": "[8]; 9 Gy, 5 mg/kg IP daily for 7 doses, Day 11", "result": 3}, {"measurement": "Number of mice surviving", "setting": "[8]; 9 Gy, 5 mg/kg IP daily for 7 doses, Day 12", "result": 2}, {"measurement": "Number of mice surviving", "setting": "[8]; 9 Gy, 5 mg/kg IP daily for 7 doses, Day 13", "result": 2}, {"measurement": "Number of mice surviving", "setting": "[8]; 9 Gy, 5 mg/kg IP daily for 7 doses, Day 14", "result": 1}, {"measurement": "Number of mice surviving", "setting": "[8]; 9 Gy, 5 mg/kg IP daily for 7 doses, Day 15", "result": 0}, {"measurement": "longer survival than vehicle control", "setting": "[8]; 11Gy, 5 mg/kg IP daily for 7 doses", "result": 48, "unit": "h"}, {"measurement": "Number of mice surviving", "setting": "[8]; 11 Gy, 5 mg/kg IP daily for 7 doses (Table 6), Day 5", "result": 3}, {"measurement": "Number of mice surviving", "setting": "[8]; 11 Gy, 5 mg/kg IP daily for 7 doses (Table 6), Day 6", "result": 3}, {"measurement": "Number of mice surviving", "setting": "[8]; 11 Gy, 5 mg/kg IP daily for 7 doses (Table 6), Day 7", "result": 3}, {"measurement": "Number of mice surviving", "setting": "[8]; 11 Gy, 5 mg/kg IP daily for 7 doses (Table 6), Day 8", "result": 3}, {"measurement": "Number of mice surviving", "setting": "[8]; 11 Gy, 5 mg/kg IP daily for 7 doses (Table 6), Day 9", "result": 2}, {"measurement": "Number of mice surviving", "setting": "[8]; 11 Gy, 5 mg/kg IP daily for 7 doses (Table 6), Day 10", "result": 0}, {"measurement": "Number of mice surviving", "setting": "[8]; 11 Gy, 1 dose/daily for 7 days (Table 7), Day 5", "result": 3}, {"measurement": "Number of mice surviving", "setting": "[8]; 11 Gy, 1 dose/daily for 7 days (Table 7), Day 6", "result": 3}, {"measurement": "Number of mice surviving", "setting": "[8]; 11 Gy, 1 dose/daily for 7 days (Table 7), Day 7", "result": 3}, {"measurement": "Number of mice surviving", "setting": "[8]; 11 Gy, 1 dose/daily for 7 days (Table 7), Day 8", "result": 2}, {"measurement": "Number of mice surviving", "setting": "[8]; 11 Gy, 1 dose/daily for 7 days (Table 7), Day 9", "result": 1}, {"measurement": "Number of mice surviving", "setting": "[8]; 11 Gy, 1 dose/daily for 7 days (Table 7), Day 10", "result": 0}, {"measurement": "Number of mice surviving", "setting": "[8]; 11 Gy, 1 dose/daily, continuous every day, Day 5", "result": 3}, {"measurement": "Number of mice surviving", "setting": "[8]; 11 Gy, 1 dose/daily, continuous every day, Day 6", "result": 3}, {"measurement": "Number of mice surviving", "setting": "[8]; 11 Gy, 1 dose/daily, continuous every day, Day 7", "result": 3}, {"measurement": "Number of mice surviving", "setting": "[8]; 11 Gy, 1 dose/daily, continuous every day, Day 8", "result": 3}, {"measurement": "Number of mice surviving", "setting": "[8]; 11 Gy, 1 dose/daily, continuous every day, Day 9", "result": 2}, {"measurement": "Number of mice surviving", "setting": "[8]; 11 Gy, 1 dose/daily, continuous every day, Day 10", "result": 0}, {"measurement": "Number of mice surviving", "setting": "[8]; 11 Gy, 7 days, 2 dose daily, Day 5", "result": 3}, {"measurement": "Number of mice surviving", "setting": "[8]; 11 Gy, 7 days, 2 dose daily, Day 6", "result": 3}]}]}
